# pIC50: −log10 of the molar value.
# Legend:
# Candida albicans [1] = assay: Antifungal activity against Candida albicans sc5314 by CLSI based broth microdilution method; format: functional
# Candida albicans [2] = assay: Antifungal activity against Candida albicans by CLSI based broth microdilution method; format: functional
# Nakaseomyces glabratus = assay: Antifungal activity against Candida glabrata by CLSI based broth microdilution method; format: functional
# Candida parapsilosis = assay: Antifungal activity against Candida parapsilosis by CLSI based broth microdilution method; format: functional; conditions: Lodderomyces parapsilosis
# Pichia kudriavzevii = assay: Antifungal activity against Pichia kudriavzevii by CLSI based broth microdilution method; format: functional
# [Candida] zeylanoides = Antifungal activity against Candida zeylanoides by CLSI based broth microdilution method; format: functional; conditions: Dujonia zeylanoides
# Cryptococcus neoformans = assay: Antifungal activity against Cryptococcus neoformans by CLSI based broth microdilution method; format: functional
# Aspergillus fumigatus = assay: Antifungal activity against Aspergillus fumigatus by CLSI based broth microdilution method; format: functional
# Candida albicans [3] = assay: Antifungal activity against FCZ-resistant Candida albicans CaR by CLSI based broth microdilution method; format: functional
# Candida albicans [4] = assay: Antifungal activity against FCZ-resistant Candida albicans 17# by CLSI based broth microdilution method; format: functional
# Candida albicans [5] = assay: Antifungal activity against FCZ-resistant Candida albicans 632 by CLSI based broth microdilution method; format: functional
# Candida albicans [6] = assay: Antifungal activity against FCZ-resistant Candida albicans 901 by CLSI based broth microdilution method; format: functional
# Candida albicans [7] = assay: Antifungal activity against FCZ-resistant Candida albicans 904 by CLSI based broth microdilution method; format: functional
# [8] = molecular target: T1, Lanosterol 14-alpha demethylase (Candida albicans (strain SC5314 / ATCC MYA-2876) (Yeast), UniProt P10613); assay: Inhibition of CYP51 of Candida albicans ATCC SC5314 assessed as decrease in ergosterol level by measuring residual activity at 1 ug/ml incubated for 16 hrs by GC-MS analysis (reference value: 98.3 %); conditions: at 1 µg/mL
# T1 sequence (P10613 whole entry): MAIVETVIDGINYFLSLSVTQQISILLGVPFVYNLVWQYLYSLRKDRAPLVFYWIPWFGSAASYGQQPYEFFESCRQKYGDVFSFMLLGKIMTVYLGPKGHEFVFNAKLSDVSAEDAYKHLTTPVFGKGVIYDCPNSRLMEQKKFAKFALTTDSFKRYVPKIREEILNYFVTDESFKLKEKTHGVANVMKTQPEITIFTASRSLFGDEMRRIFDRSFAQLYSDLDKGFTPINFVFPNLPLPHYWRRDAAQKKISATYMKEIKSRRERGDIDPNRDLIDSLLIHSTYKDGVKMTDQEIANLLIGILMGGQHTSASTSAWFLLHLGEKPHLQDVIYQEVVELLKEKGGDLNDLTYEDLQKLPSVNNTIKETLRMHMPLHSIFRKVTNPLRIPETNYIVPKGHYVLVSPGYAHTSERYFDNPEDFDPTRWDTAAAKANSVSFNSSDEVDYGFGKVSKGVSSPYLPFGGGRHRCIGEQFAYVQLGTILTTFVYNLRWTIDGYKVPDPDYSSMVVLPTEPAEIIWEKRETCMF
# [9] = molecular target: T1, Lanosterol 14-alpha demethylase; assay: Inhibition of CYP51 of Candida albicans ATCC SC5314 assessed as decrease in ergosterol level by measuring residual activity at 2 ug/ml incubated for 16 hrs by GC-MS analysis (reference value: 98.3 %); conditions: at 2 µg/mL
# [10] = molecular target: T1, Lanosterol 14-alpha demethylase; assay: Inhibition of CYP51 of Candida albicans ATCC SC5314 assessed as decrease in ergosterol level by measuring residual activity at 4 ug/ml incubated for 16 hrs by GC-MS analysis (reference value: 98.3 %); conditions: at 4 µg/mL
# [11] = molecular target: T1, Lanosterol 14-alpha demethylase; assay: Inhibition of CYP51 of Candida albicans ATCC SC5314 assessed as decrease in ergosterol level by measuring residual activity at 8 ug/ml incubated for 16 hrs by GC-MS analysis (reference value: 98.3 %); conditions: at 8 µg/mL
# [12] = molecular target: T1, Lanosterol 14-alpha demethylase; assay: Inhibition of CYP51 of Candida albicans ATCC SC5314 assessed as increase in obtusifoliol level at 1 ug/ml incubated for 16 hrs by GC-MS analysis (reference value: 0 %); parameters: scale not given: the % may be the effect or the level left; conditions: at 1 µg/mL
# [13] = molecular target: T1, Lanosterol 14-alpha demethylase; assay: Inhibition of CYP51 of Candida albicans ATCC SC5314 assessed as increase in obtusifoliol level at 2 ug/ml incubated for 16 hrs by GC-MS analysis (reference value: 0 %); parameters: scale not given: the % may be the effect or the level left; conditions: at 2 µg/mL
# [14] = molecular target: T1, Lanosterol 14-alpha demethylase; assay: Inhibition of CYP51 of Candida albicans ATCC SC5314 assessed as increase in obtusifoliol level at 4 ug/ml incubated for 16 hrs by GC-MS analysis (reference value: 0 %); parameters: scale not given: the % may be the effect or the level left; conditions: at 4 µg/mL
# [15] = molecular target: T1, Lanosterol 14-alpha demethylase; assay: Inhibition of CYP51 of Candida albicans ATCC SC5314 assessed as increase in obtusifoliol level at 8 ug/ml incubated for 16 hrs by GC-MS analysis (reference value: 0 %); parameters: scale not given: the % may be the effect or the level left; conditions: at 8 µg/mL
# [16] = molecular target: T1, Lanosterol 14-alpha demethylase; assay: Inhibition of CYP51 of Candida albicans ATCC SC5314 assessed as increase in lanosterol level at 1 ug/ml incubated for 16 hrs by GC-MS analysis (reference value: 1.7 %); parameters: scale not given: the % may be the effect or the level left; conditions: at 1 µg/mL
# [17] = molecular target: T1, Lanosterol 14-alpha demethylase; assay: Inhibition of CYP51 of Candida albicans ATCC SC5314 assessed as increase in lanosterol level at 2 ug/ml incubated for 16 hrs by GC-MS analysis (reference value: 1.7 %); parameters: scale not given: the % may be the effect or the level left; conditions: at 2 µg/mL
# [18] = molecular target: T1, Lanosterol 14-alpha demethylase; assay: Inhibition of CYP51 of Candida albicans ATCC SC5314 assessed as increase in lanosterol level at 4 ug/ml incubated for 16 hrs by GC-MS analysis (reference value: 1.7 %); parameters: scale not given: the % may be the effect or the level left; conditions: at 4 µg/mL
# [19] = molecular target: T1, Lanosterol 14-alpha demethylase; assay: Inhibition of CYP51 of Candida albicans ATCC SC5314 assessed as increase in lanosterol level at 8 ug/ml incubated for 16 hrs by GC-MS analysis (reference value: 1.7 %); parameters: scale not given: the % may be the effect or the level left; conditions: at 8 µg/mL
# [20] = molecular target: T1, Lanosterol 14-alpha demethylase; assay: Inhibition of CYP51 of Candida albicans ATCC SC5314 assessed as increase in eburicol level at 1 ug/ml incubated for 16 hrs by GC-MS analysis (reference value: 0 %); parameters: scale not given: the % may be the effect or the level left; conditions: at 1 µg/mL
# [21] = molecular target: T1, Lanosterol 14-alpha demethylase; assay: Inhibition of CYP51 of Candida albicans ATCC SC5314 assessed as increase in eburicol level at 2 ug/ml incubated for 16 hrs by GC-MS analysis (reference value: 0 %); parameters: scale not given: the % may be the effect or the level left; conditions: at 2 µg/mL
# [22] = molecular target: T1, Lanosterol 14-alpha demethylase; assay: Inhibition of CYP51 of Candida albicans ATCC SC5314 assessed as increase in eburicol level at 4 ug/ml incubated for 16 hrs by GC-MS analysis (reference value: 0 %); parameters: scale not given: the % may be the effect or the level left; conditions: at 4 µg/mL
# [23] = molecular target: T1, Lanosterol 14-alpha demethylase; assay: Inhibition of CYP51 of Candida albicans ATCC SC5314 assessed as increase in eburicol level at 8 ug/ml incubated for 16 hrs by GC-MS analysis (reference value: 0 %); parameters: scale not given: the % may be the effect or the level left; conditions: at 8 µg/mL
# Candida albicans [24] = assay: Antibiofilm activity against Candida albicans SC5314 assessed as sessile minimum inhibitory concentration measured after 1.5 hrs by XTT assay; format: functional
# Candida albicans [25] = assay: Antibiofilm activity against Candida albicans SC5314 assessed as sessile minimum inhibitory concentration measured after 3 hrs by XTT assay; format: functional
# Candida albicans [26] = assay: Antibiofilm activity against Candida albicans SC5314 assessed as sessile minimum inhibitory concentration measured after 6 hrs by XTT assay; format: functional
# Candida albicans [27] = assay: Antibiofilm activity against Candida albicans SC5314 assessed as sessile minimum inhibitory concentration measured after 24 hrs by XTT assay; format: functional
# Candida albicans [28] = assay: Antibiofilm activity against Candida albicans CPCC400616 assessed as sessile minimum inhibitory concentration measured after 1.5 hrs by XTT assay; format: functional
# Candida albicans [29] = assay: Antibiofilm activity against Candida albicans CPCC400616 assessed as sessile minimum inhibitory concentration measured after 3 hrs by XTT assay; format: functional
# Candida albicans [30] = assay: Antibiofilm activity against Candida albicans CPCC400616 assessed as sessile minimum inhibitory concentration measured after 6 hrs by XTT assay; format: functional
# Candida albicans [31] = assay: Antibiofilm activity against Candida albicans CPCC400616 assessed as sessile minimum inhibitory concentration measured after 24 hrs by XTT assay; format: functional
# Candida albicans [32] = assay: Fungicidal activity against Candida albicans; format: functional
# Candida albicans [33] = assay: Fungicidal activity against Candida albicans sc5314; format: functional
# Candida albicans [34] = assay: Fungicidal activity against FCZ-resistant Candida albicans CaR; format: functional
# Candida albicans [35] = assay: Fungicidal activity against FCZ-resistant Candida albicans 17#; format: functional
# Candida albicans [36] = assay: Fungicidal activity against FCZ-resistant Candida albicans 632; format: functional
# Candida albicans [37] = assay: Fungicidal activity against FCZ-resistant Candida albicans 901; format: functional
# Candida albicans [38] = assay: Fungicidal activity against FCZ-resistant Candida albicans 904; format: functional
# [39] = Cytotoxicity against human HL-60 cells by MTT assay; format: toxicity, cell-based
# [40] = Cytotoxicity against human MDA-MB-231 cells by MTT assay; format: toxicity, cell-based
# [41] = Cytotoxicity against human PC-3 cells by MTT assay; format: toxicity, cell-based
smiles,measurement,setting,value
OC(Cn1cncn1)(Cn1cncn1)c1ccc(F)cc1F [FLUCONAZOLE],MIC,Candida albicans [1],1 µg/mL
same,MIC,Candida albicans [2],4 µg/mL
same,MIC,Nakaseomyces glabratus,32 µg/mL
same,MIC,Candida parapsilosis,4 µg/mL
same,MIC,Pichia kudriavzevii,32 µg/mL
same,MIC,[Candida] zeylanoides,2 µg/mL
same,MIC,Cryptococcus neoformans,4 µg/mL
same,MIC,Aspergillus fumigatus,> 64 µg/mL
same,MIC,Candida albicans [3],> 64 µg/mL
same,MIC,Candida albicans [4],> 64 µg/mL
same,MIC,Candida albicans [5],> 64 µg/mL
same,MIC,Candida albicans [6],> 64 µg/mL
same,MIC,Candida albicans [7],> 64 µg/mL
same,Activity,[8],3.9%
same,Activity,[9],2.5%
same,Activity,[10],2.5%
same,Activity,[11],1.1%
same,Activity,[12],13.9%
same,Activity,[13],13.1%
same,Activity,[14],12.5%
same,Activity,[15],14.8%
same,Activity,[16],14.9%
same,Activity,[17],15.7%
same,Activity,[18],15.4%
same,Activity,[19],14.3%
same,Activity,[20],67.3%
same,Activity,[21],68.7%
same,Activity,[22],69.6%
same,Activity,[23],69.9%
same,MIC50,Candida albicans [24],> 1020 µg/mL
same,MIC80,Candida albicans [24],> 1020 µg/mL
same,MIC50,Candida albicans [25],> 1020 µg/mL
same,MIC80,Candida albicans [25],> 1020 µg/mL
same,MIC50,Candida albicans [26],> 1020 µg/mL
same,MIC80,Candida albicans [26],> 1020 µg/mL
same,MIC50,Candida albicans [27],> 1020 µg/mL
same,MIC80,Candida albicans [27],> 1020 µg/mL
same,MIC50,Candida albicans [28],> 1020 µg/mL
same,MIC80,Candida albicans [28],> 1020 µg/mL
same,MIC50,Candida albicans [29],> 1020 µg/mL
same,MIC80,Candida albicans [29],> 1020 µg/mL
same,MIC50,Candida albicans [30],> 1020 µg/mL
same,MIC80,Candida albicans [30],> 1020 µg/mL
same,MIC50,Candida albicans [31],> 1020 µg/mL
same,MIC80,Candida albicans [31],> 1020 µg/mL
Clc1ccc(C(Cn2ccnc2)[Se]C(Cn2ccnc2)c2ccc(Cl)cc2)cc1 (stereo not given),MIC,Candida albicans [1],1 µg/mL
same,MIC,Candida albicans [2],2 µg/mL
same,MIC,Nakaseomyces glabratus,64 µg/mL
same,MIC,Candida parapsilosis,2 µg/mL
same,MIC,Pichia kudriavzevii,16 µg/mL
same,MIC,[Candida] zeylanoides,8 µg/mL
same,MIC,Cryptococcus neoformans,> 64 µg/mL
same,MIC,Aspergillus fumigatus,> 64 µg/mL
same,MIC,Candida albicans [3],4 µg/mL
same,MIC,Candida albicans [4],1 µg/mL
same,MIC,Candida albicans [5],2 µg/mL
same,MIC,Candida albicans [6],1 µg/mL
same,MIC,Candida albicans [7],1 µg/mL
same,MFC,Candida albicans [32],32 µg/mL
same,MFC,Candida albicans [33],2 µg/mL
same,MFC,Candida albicans [34],> 64 µg/mL
same,MFC,Candida albicans [35],> 64 µg/mL
same,MFC,Candida albicans [36],4 µg/mL
same,MFC,Candida albicans [37],2 µg/mL
same,MFC,Candida albicans [38],1 µg/mL
same,Activity,[8],64.7%
same,Activity,[9],10.4%
same,Activity,[10],4.4%
same,Activity,[11],3.7%
same,Activity,[12],1%
same,Activity,[13],18%
same,Activity,[14],9.5%
same,Activity,[15],23.8%
same,Activity,[16],5.1%
same,Activity,[17],15.4%
same,Activity,[18],12.4%
same,Activity,[19],17%
same,Activity,[20],29.3%
same,Activity,[21],56.2%
same,Activity,[22],73.8%
same,Activity,[23],55.5%
same,MIC50,Candida albicans [24],0.5 µg/mL
same,MIC80,Candida albicans [24],2 µg/mL
same,MIC50,Candida albicans [25],0.5 µg/mL
same,MIC80,Candida albicans [25],2 µg/mL
same,MIC50,Candida albicans [26],0.5 µg/mL
same,MIC80,Candida albicans [26],4 µg/mL
same,MIC50,Candida albicans [27],0.5 µg/mL
same,MIC80,Candida albicans [27],2 µg/mL
same,MIC50,Candida albicans [28],0.5 µg/mL
same,MIC80,Candida albicans [28],2 µg/mL
same,MIC50,Candida albicans [29],0.5 µg/mL
same,MIC80,Candida albicans [29],2 µg/mL
same,MIC50,Candida albicans [30],1 µg/mL
same,MIC80,Candida albicans [30],2 µg/mL
same,MIC50,Candida albicans [31],2 µg/mL
same,MIC80,Candida albicans [31],4 µg/mL
same,pIC50,[39],5.29
same,pIC50,[40],5.49
same,pIC50,[41],6.01

# Reference: ChEMBL document CHEMBL5352410, “Discovery of novel selenium-containing azole derivatives as antifungal agents by exploiting the hydrophobic cleft of CYP51” (Eur J Med Chem, 2022)
